Source: ChEMBL document CHEMBL3046958, “Synthesis and Evaluation of Homologous Analogs of Anticonvulsant 5-Substituted 3,3-Diethyl-4,5-Dighdro-2(3H)-Furanones” (Med Chem Res, 2005)
Calls of active or inactive are those of the source. The calls are words filed in the database; no cut-off is given here.

What was measured:
Mus musculus [1] = test: (§1) Neurotoxicity in Mus musculus CF1 (mouse) at 100 to 300 mg/kg by rotorod test; assay type: toxicity, organism-based; parameters: dose 100-300 mg/kg; conditions: mouse, in vivo
Mus musculus [2] = test: Anticonvulsant activity in Mus musculus CF1 (mouse) assessed as protection against maximal electroshock-induced seizures at 100 to 300 mg/kg measured after 4 hr; assay type: functional
Mus musculus [3] = test: Anticonvulsant activity in Mus musculus CF1 (mouse) assessed as protection against subcutaneous pentylenetetrazol-induced seizures at 100 to 300 mg/kg; assay type: functional, organism-based
Mus musculus [4] = test: Anticonvulsant activity in Mus musculus CF1 (mouse) assessed as protection against maximal electroshock-induced seizures at 100 to 300 mg/kg measured after 0.5 hr; assay type: functional
Mus musculus [5] = test: Anticonvulsant activity in Mus musculus CF1 (mouse) assessed as protection against subcutaneous pentylenetetrazol-induced seizures; assay type: functional
Mus musculus [6] = test: Anticonvulsant activity in Mus musculus CF1 (mouse) assessed as protection against subcutaneous pentylenetetrazol-induced seizures at 300 mg/kg; assay type: functional, organism-based; parameters: dose 300 mg/kg
[7] = target: GABA-A receptor; agonist GABA site (Homo sapiens) (UniProt P14867+P47870+P28472+P48169+P34903+P18505+P47869+P31644+Q16445); test: Displacement of [3H]TBOB from GABAA receptor (unknown origin) at 10 uM; assay type: protein-complex assay
Mus musculus [8] = test: Anticonvulsant activity in Mus musculus CF1 (mouse) assessed as protection against maximal electroshock-induced seizures at 300 mg/kg; assay type: functional, organism-based; parameters: dose 300 mg/kg
Mus musculus [9] = test: Neurotoxicity in Mus musculus CF1 (mouse) at 300 mg/kg by rotorod test; assay type: toxicity, organism-based; parameters: dose 300 mg/kg; conditions: in vivo
[10] = as §1; assay type: toxicity, organism-based; parameters: dose 100-300 mg/kg; conditions: CF1, mouse, in vivo

| SMILES | Activity (Mus musculus [1]) | Activity (Mus musculus [2]) | Activity (Mus musculus [3]) | Activity (Mus musculus [4]) | other results |
| --- | --- | --- | --- | --- | --- |
| CCC1(CC)CC(COC(=O)c2ccc(Br)cc2)OC1=O (centres undefined) | Non-toxic | inactive | inactive | inactive | – |
| CCC(=O)OCC1CC(CC)(CC)C(=O)O1 (centres undefined) | Non-toxic | inactive | inactive | inactive | – |
| CCC1(CC)CC(COC(=O)c2ccc(OC)cc2)OC1=O (centres undefined) | Non-toxic | inactive | – | inactive | Activity (Mus musculus [5]): 300 mg/kg |
| CCC1(CC)CC(CCOC(=O)c2ccc(C)cc2)OC1=O (centres undefined) | – | – | inactive | inactive | Activity (Mus musculus [6]): Active |
| CCC1(CC)CC(CCNC(=O)c2ccc(Br)cc2)OC1=O (centres undefined) | – | – | inactive | inactive | – |
| CCC1(CC)CC(CCNC(=O)c2ccccc2)OC1=O (centres undefined) | – | – | inactive | inactive | inhibition [7]: 0.29%; Activity (Mus musculus [8]): Active |
| CCCCCCCC(=O)NCCC1CC(CC)(CC)C(=O)O1 (centres undefined) | – | – | inactive | inactive | – |
| CCC1(CC)CC(CO)OC1=O (centres undefined) | – | – | – | – | inhibition [7]: 9.1% |
| CCC1(CC)CC(COC(=O)c2ccc(C)cc2)OC1=O (centres undefined) | Non-toxic | inactive | inactive | inactive | – |
| CCC1(CC)CC(CCOC(=O)c2ccc(OC)cc2)OC1=O (centres undefined) | – | – | inactive | inactive | – |
| CCCCCCCC(=O)OCC1CC(CC)(CC)C(=O)O1 (centres undefined) | Non-toxic | inactive | inactive | inactive | – |
| CCC1(CC)CC(CCOC(=O)c2ccccc2)OC1=O (centres undefined) | – | – | inactive | inactive | inhibition [7]: 3.86% |
| CCC(=O)OCCC1CC(CC)(CC)C(=O)O1 (centres undefined) | – | – | inactive | inactive | – |
| CCC1(CC)CC(CCOC(=O)c2ccc(Br)cc2)OC1=O (centres undefined) | – | – | inactive | inactive | Activity (Mus musculus [9]): Toxic |
| CCC1(CC)CC(CCNC(=O)c2ccc(C)cc2)OC1=O (centres undefined) | – | – | inactive | inactive | – |
| CCC1(CC)CC(COC(=O)c2ccccc2)OC1=O (centres undefined) | Non-toxic | inactive | inactive | inactive | inhibition [7]: 12.5% |
| CCC1(CC)CC(CCNC(=O)c2ccc(OC)cc2)OC1=O (centres undefined) | – | – | inactive | inactive | – |
| CCC(=O)NCCC1CC(CC)(CC)C(=O)O1 (centres undefined) | – | – | inactive | inactive | inhibition [7]: 3.62% |
| CCC1(CC)CC(CNC(=O)c2ccc(Br)cc2)OC1=O (centres undefined) | – | – | – | – | TD50 [10]: 285 mg/kg; ED50 (Mus musculus [2]; CF1, 4 h, dose mg/kg 100-300): 89.9 mg/kg; ED50 (Mus musculus [4]; CF1, 0.5 h, dose mg/kg 100-300): 89.9 mg/kg |
| CCCCCCCC(=O)OCCC1CC(CC)(CC)C(=O)O1 (centres undefined) | – | – | inactive | inactive | – |
